Data reported in patent US9617267B2, “Compounds and methods for kinase modulation, and indications therefor” (Plexxikon Inc., priority 2009, dated 2017).
Where two headings read alike, the source gives them in different places.

Experiments:
CYP3A4(BQ) = CYP3A4(BQ) (Homo sapiens (Human), UniProt P08684); experiment: CYP enzyme inhibition, fluorescent substrate BQ
Procedure, shortened: (§1)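 IC50 values come from plotting product fluorescence against compound concentration; inhibition lowers formation of the fluorescent metabolite. Ten-point twofold dilutions in co-factor mix were held 10 minutes at 37 °C before the enzyme reaction, also run at 37 °C.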

CYP2C19 = CYP2C19 (Homo sapiens (Human), UniProt P33261); experiment: CYP enzyme inhibition, fluorescent substrate (CEC)
CYP2C19, sequence (P33261 whole entry): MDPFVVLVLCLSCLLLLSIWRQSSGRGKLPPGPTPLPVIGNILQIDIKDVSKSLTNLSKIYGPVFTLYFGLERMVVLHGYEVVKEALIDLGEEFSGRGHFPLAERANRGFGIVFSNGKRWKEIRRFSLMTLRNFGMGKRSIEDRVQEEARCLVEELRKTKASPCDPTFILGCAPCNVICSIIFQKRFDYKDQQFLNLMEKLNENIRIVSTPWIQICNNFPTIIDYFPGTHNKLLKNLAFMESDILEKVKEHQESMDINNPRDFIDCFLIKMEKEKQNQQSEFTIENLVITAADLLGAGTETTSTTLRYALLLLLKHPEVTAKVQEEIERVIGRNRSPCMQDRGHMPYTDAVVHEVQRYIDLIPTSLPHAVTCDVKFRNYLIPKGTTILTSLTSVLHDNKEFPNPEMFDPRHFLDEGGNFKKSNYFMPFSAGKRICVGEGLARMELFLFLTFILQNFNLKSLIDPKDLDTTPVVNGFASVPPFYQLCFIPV
Procedure, shortened: as §1

CYP1A2 = CYP1A2 (Homo sapiens (Human), UniProt P05177); experiment: CYP enzyme inhibition, fluorescent substrate (CEC)
CYP1A2, sequence (P05177 whole entry): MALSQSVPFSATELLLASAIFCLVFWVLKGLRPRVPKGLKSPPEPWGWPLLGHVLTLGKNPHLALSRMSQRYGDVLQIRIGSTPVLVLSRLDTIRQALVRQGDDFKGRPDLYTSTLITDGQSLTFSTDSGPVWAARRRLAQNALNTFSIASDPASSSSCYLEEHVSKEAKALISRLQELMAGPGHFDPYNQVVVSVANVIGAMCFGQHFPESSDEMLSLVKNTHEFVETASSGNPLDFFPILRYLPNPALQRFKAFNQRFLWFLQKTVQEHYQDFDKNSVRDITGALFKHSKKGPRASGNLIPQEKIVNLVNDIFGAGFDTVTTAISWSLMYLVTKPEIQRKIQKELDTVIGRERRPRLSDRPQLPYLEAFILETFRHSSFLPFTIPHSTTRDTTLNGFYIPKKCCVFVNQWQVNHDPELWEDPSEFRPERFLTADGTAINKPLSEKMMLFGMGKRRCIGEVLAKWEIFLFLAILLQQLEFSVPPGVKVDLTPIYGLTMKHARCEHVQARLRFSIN
Procedure, shortened: (§2)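 Ten-point 1:1 compound dilutions in NADPH-regenerating cofactor mix, pre-incubated 10 min at 37 °C before enzyme/substrate addition: CYP1A2 0.5 pmol with 5 μM CEC, 15 min, 409 ex/460 em; CYP2D6 1.5 pmol with 1.5 μM AMMC, 30 min, 409 ex/530 em. IC50 from fluorescent product vs concentration.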

CYP2C9 = CYP2C9 (Homo sapiens (Human), UniProt P11712); experiment: CYP enzyme inhibition, fluorescent substrate (MFC)
CYP2C9, sequence (P11712 whole entry): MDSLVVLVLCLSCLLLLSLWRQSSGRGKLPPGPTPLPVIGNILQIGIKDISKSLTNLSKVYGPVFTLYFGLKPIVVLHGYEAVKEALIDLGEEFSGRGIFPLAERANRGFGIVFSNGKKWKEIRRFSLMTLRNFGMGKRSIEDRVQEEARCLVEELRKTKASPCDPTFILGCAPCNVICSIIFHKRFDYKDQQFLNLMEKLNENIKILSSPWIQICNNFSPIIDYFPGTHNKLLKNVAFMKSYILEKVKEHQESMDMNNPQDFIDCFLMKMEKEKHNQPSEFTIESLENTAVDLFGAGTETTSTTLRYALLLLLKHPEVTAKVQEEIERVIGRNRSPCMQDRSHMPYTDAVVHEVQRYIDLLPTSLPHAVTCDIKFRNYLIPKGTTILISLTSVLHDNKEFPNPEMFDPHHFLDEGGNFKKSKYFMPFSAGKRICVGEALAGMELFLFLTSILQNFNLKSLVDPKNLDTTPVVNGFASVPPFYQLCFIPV
Procedure, shortened: as §1

[1] = Relative solubility by turbidity threshold concentration in aqueous buffers (pH 1.5, 4.5, 6.8, 7.4); assay type: physicochemical; settings: for turbidity threshold (L, M, H) 1.4: pH 1.4 [sic] (method: SGF pH 1.5); for turbidity threshold (L, M, H) 4.5: pH 4.5 (SIF); for turbidity threshold (L, M, H) 6.8: pH 6.8 (SIF); for turbidity threshold (L, M, H) 7.4: pH 7.4 (HEPES)
Procedure, shortened: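 Solubility class (high >250 μM, moderate 31.3–250 μM, low <31.3 μM) comes from the concentration where absorbance reaches a 0.01 threshold, averaged across 490/535/650 nm. Samples were compound dilutions from DMSO stock, 1 μL into 99 μL buffer at pH 1.5, 4.5, 6.8 or 7.4.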

c-Raf-1 = c-Raf-1 (Homo sapiens, UniProt P04049); experiment: c-Raf-1 kinase activity biochemical assay (AlphaScreen, biotin-MEK1 phosphorylation)
c-Raf-1, sequence (P04049 whole entry, looked up): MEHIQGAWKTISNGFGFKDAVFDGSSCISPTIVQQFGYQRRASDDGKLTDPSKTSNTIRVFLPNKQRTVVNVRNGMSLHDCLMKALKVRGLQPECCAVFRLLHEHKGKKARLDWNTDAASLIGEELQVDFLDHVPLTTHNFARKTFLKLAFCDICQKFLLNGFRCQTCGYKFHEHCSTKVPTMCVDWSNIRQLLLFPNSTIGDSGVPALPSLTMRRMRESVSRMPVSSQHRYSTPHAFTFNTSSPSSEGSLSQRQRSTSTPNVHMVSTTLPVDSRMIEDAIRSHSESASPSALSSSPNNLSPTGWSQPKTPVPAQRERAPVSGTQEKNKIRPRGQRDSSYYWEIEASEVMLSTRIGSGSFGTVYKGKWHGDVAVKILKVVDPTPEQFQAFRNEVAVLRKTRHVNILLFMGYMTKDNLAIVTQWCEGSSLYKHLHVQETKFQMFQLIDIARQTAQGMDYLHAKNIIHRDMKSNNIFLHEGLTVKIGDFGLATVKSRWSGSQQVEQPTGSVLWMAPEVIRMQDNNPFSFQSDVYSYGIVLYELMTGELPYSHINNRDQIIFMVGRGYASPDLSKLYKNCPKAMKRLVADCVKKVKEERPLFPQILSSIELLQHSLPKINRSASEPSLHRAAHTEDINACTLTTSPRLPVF
Procedure, shortened: (§3)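 Biotin-MEK1 phosphorylation measured after 45 min kinase reaction at RT with 100 μM ATP final; compounds tested at 8 points from 0.1 mM DMSO stock.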

CYP3A4(BFC) = CYP3A4(BFC) (Homo sapiens (Human), UniProt P08684); experiment: CYP enzyme inhibition, fluorescent substrate BFC
CYP3A4(BFC), sequence (P08684 whole entry): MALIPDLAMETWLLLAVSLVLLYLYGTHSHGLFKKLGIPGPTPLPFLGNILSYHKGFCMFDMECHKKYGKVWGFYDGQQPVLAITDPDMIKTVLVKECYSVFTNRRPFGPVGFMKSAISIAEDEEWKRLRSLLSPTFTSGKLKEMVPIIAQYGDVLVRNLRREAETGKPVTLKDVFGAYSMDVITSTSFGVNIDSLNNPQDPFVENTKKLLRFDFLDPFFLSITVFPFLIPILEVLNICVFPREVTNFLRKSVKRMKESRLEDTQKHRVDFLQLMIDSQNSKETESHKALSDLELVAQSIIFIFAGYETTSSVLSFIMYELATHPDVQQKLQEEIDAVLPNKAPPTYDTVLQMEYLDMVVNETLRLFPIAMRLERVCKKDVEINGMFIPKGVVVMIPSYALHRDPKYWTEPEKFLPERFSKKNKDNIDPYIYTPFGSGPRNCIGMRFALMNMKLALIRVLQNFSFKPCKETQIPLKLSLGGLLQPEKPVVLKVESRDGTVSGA
Procedure, shortened: as §1

CYP2D6 = CYP2D6 (Homo sapiens (Human), UniProt P10635); experiment: CYP enzyme inhibition, fluorescent substrate (AMMC); assay type: in vitro ADME; settings: read-out: Cyp IC50 2D6
CYP2D6, sequence (P10635 whole entry): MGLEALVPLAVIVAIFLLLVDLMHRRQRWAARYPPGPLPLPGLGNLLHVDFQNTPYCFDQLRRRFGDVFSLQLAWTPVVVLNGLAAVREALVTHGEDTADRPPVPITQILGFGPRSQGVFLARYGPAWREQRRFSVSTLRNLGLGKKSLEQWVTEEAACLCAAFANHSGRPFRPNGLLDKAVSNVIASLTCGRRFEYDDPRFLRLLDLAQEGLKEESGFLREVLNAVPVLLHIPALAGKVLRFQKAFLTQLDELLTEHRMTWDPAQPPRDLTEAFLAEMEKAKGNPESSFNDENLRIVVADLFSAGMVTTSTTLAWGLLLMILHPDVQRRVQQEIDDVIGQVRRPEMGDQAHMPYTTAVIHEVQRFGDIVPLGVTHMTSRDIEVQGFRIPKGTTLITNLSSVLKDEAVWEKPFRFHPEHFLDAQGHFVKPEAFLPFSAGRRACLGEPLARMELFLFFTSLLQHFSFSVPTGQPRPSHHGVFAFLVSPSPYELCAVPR
Procedure, shortened: as §2

B-Raf [2] = molecular target: B-Raf (Homo sapiens (Human), UniProt P15056); experiment: B-Raf kinase activity biochemical assay (AlphaScreen, biotin-MEK1 phosphorylation); settings: B-Raf
B-Raf (Homo sapiens (Human), UniProt P15056), sequence (P15056 whole entry): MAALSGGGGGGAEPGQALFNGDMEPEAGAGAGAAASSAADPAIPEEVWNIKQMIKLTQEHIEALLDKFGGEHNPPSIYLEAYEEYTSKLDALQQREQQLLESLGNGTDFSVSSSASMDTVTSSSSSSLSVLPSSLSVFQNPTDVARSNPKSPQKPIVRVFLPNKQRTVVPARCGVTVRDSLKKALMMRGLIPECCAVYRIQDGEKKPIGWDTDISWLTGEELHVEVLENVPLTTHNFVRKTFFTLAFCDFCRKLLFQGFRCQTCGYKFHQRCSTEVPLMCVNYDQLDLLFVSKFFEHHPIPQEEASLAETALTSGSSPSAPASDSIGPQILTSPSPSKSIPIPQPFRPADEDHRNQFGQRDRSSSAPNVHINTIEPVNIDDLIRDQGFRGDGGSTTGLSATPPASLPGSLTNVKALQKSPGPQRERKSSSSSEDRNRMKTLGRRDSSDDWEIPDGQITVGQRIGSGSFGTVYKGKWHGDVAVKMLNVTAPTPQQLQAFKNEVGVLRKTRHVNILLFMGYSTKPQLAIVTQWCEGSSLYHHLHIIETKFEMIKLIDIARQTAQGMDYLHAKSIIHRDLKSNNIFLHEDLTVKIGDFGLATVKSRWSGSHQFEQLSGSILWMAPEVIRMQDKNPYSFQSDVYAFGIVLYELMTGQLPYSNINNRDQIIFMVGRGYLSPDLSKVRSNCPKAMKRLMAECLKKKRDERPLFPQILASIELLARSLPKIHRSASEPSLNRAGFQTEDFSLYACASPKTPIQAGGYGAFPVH
Procedure, shortened: as §3

B-Raf [3] = experiment: as above; settings: for Biochemical activity ratio B/V600E: ratio of IC50 B-Raf / B-Raf V600E; for Biochemical activity ratio B/C: ratio of IC50 B-Raf / c-Raf-1
Procedure, shortened: as §3

B-Raf V600E = B-Raf V600E (Homo sapiens (Human), UniProt P15056, V600E); experiment: B-Raf V600E kinase activity biochemical assay (AlphaScreen, biotin-MEK1 phosphorylation); settings: for IC50: B-Raf V600E; for Biochemical activity ratio V600E/C: ratio of IC50 B-Raf V600E / c-Raf-1
B-Raf V600E, sequence (P15056 whole entry V600E): as the sequence (P15056 whole entry) above, with V600E counted along it
Procedure, shortened: as §3

[4] = read-out: Cyp IC50 3A4(BQ), CYP3A4, substrate BQ
[5] = read-out: Cyp IC50 2C9, CYP2C9, substrate MFC
[6] = read-out: Cyp IC50 2C19, CYP2C19, substrate CEC
[7] = read-out: Cyp IC50 3A4(BFC), CYP3A4, substrate BFC

CYP3A4(BQ), sequence (P08684 whole entry): as the sequence (P08684 whole entry) above

IC50 (CYP2C19) | SMILES | turbidity threshold (L, M, H) 1.4 [1] | turbidity threshold (L, M, H) 4.5 [1] | turbidity threshold (L, M, H) 6.8 [1] | turbidity threshold (L, M, H) 7.4 [1] | IC50 (c-Raf-1) | IC50 (CYP3A4(BFC)) | IC50 (CYP2D6) | IC50 (B-Raf [2]) | Biochemical activity ratio B/V600E (B-Raf [3]) | Biochemical activity ratio B/C (B-Raf [3]) | IC50 (B-Raf V600E) | Biochemical activity ratio V600E/C (B-Raf V600E) | IC50 (CYP3A4(BQ); [4]) | IC50 (CYP1A2; human, 15 min) | IC50 (CYP2C9; [5]) | IC50 (CYP2C19; [6]) | IC50 (CYP3A4(BFC); [7]) | also measured
> 10 µM | CCCS(=O)(=O)Nc1ccc(F)c(C(=O)c2c[nH]c3ncc(Cl)c(C#N)c23)c1F [P-2007, Propane-1-sulfonic acid [3-(5-chloro-4-cyano-1H-pyrrolo[2,3-b]pyridine-3-carbonyl)-2,4-difluoro-phenyl]-amide] | M (moderate solubility if the threshold concentration is 31.3 μM to 250 μM) | M (moderate solubility if the threshold concentration is 31.3 μM to 250 μM) | M (moderate solubility if the threshold concentration is 31.3 μM to 250 μM) | M (moderate solubility if the threshold concentration is 31.3 μM to 250 μM) | < 0.1 µM | > 10 µM | > 10 µM | < 0.1 µM | 0.1-10 | 0.1-10 | < 0.1 µM | 0.1-10 | – | – | – | – | – | IC50 (CYP3A4(BQ)): > 10 µM; IC50 (CYP1A2): > 10 µM; IC50 (CYP2C9): < 5 µM
– | O=C(c1c(F)ccc(NS(=O)(=O)c2ccc(C(F)(F)F)cc2)c1F)c1c[nH]c2ncnc(NC3CCOCC3)c12 [P-1013, N-{2,4-Difluoro-3-[4-(tetrahydro-pyran-4-ylamino)-7H-pyrrolo[2,3-d]pyrimidine-5-carbonyl]-phenyl}-4-trifluoromethyl-benzenesulfonamide] | L (low solubility if the threshold concentration is <31.3 μM) | L (low solubility if the threshold concentration is <31.3 μM) | L (low solubility if the threshold concentration is <31.3 μM) | M (moderate solubility if the threshold concentration is 31.3 μM to 250 μM) | < 0.1 µM | – | > 10 µM | < 0.1 µM | 0.1-10 | >10 | > 0.1 µM | >10 | > 10 µM | – | > 10 µM | > 10 µM | > 10 µM | IC50 (CYP1A2; read-out: Cyp IC50 1A2, CYP1A2, substrate CEC): > 10 µM
– | CN(C)c1ncnc2[nH]cc(C(=O)c3c(F)ccc(NS(=O)(=O)c4ccc(C(F)(F)F)cc4)c3F)c12 [P-1049, N-[3-(4-Dimethylamino-7H-pyrrolo[2,3-d]pyrimidine-5-carbonyl)-2,4-difluoro-phenyl]-4-trifluoromethyl-benzenesulfonamide] | M (moderate solubility if the threshold concentration is 31.3 μM to 250 μM) | M (moderate solubility if the threshold concentration is 31.3 μM to 250 μM) | M (moderate solubility if the threshold concentration is 31.3 μM to 250 μM) | M (moderate solubility if the threshold concentration is 31.3 μM to 250 μM) | > 0.1 µM | – | > 10 µM | > 0.1 µM | 0.1-10 | >10 | > 0.1 µM | >10 | > 10 µM | > 10 µM | > 10 µM | > 10 µM | > 10 µM | –
– | Cc1ncnc2[nH]cc(C(=O)c3c(F)ccc(NS(=O)(=O)c4ccc(C(F)(F)F)cc4)c3F)c12 [P-1001, N-[2,4-Difluoro-3-(4-methyl-7H-pyrrolo[2,3-d]pyrimidine-5-carbonyl)-phenyl]-4-trifluoromethyl-benzenesulfonamide] | H (high solubility if the threshold concentration is >250 μm) | M (moderate solubility if the threshold concentration is 31.3 μM to 250 μM) | M (moderate solubility if the threshold concentration is 31.3 μM to 250 μM) | M (moderate solubility if the threshold concentration is 31.3 μM to 250 μM) | < 0.1 µM | – | > 10 µM | < 0.1 µM | 0.1-10 | 0.1-10 | > 0.1 µM | >10 | > 10 µM | > 10 µM | > 10 µM | > 10 µM | < 5 µM | –
– | CN1CCC(Nc2ncnc3[nH]cc(C(=O)c4c(F)ccc(NS(=O)(=O)c5ccc(C(F)(F)F)cc5)c4F)c23)CC1 [P-1057, N-{2,4-Difluoro-3-[4-(1-methyl-piperidin-4-ylamino)-7H-pyrrolo[2,3-d]pyrimidine-5-carbonyl]-phenyl}-4-trifluoromethyl-benzenesulfonamide] | H (high solubility if the threshold concentration is >250 μm) | H (high solubility if the threshold concentration is >250 μm) | M (moderate solubility if the threshold concentration is 31.3 μM to 250 μM) | M (moderate solubility if the threshold concentration is 31.3 μM to 250 μM) | < 0.1 µM | – | > 10 µM | < 0.1 µM | 0.1-10 | 0.1-10 | > 0.1 µM | >10 | > 10 µM | > 10 µM | > 10 µM | > 10 µM | > 10 µM | –
< 5 µM | CCCS(=O)(=O)Nc1ccc(F)c(C(=O)c2c[nH]c3ncc(OC)c(Cl)c23)c1F [P-2002, Propane-1-sulfonic acid [3-(4-chloro-5-methoxy-1H-pyrrolo[2,3-b]pyridine-3-carbonyl)-2,4-difluoro-phenyl]-amide] | M (moderate solubility if the threshold concentration is 31.3 μM to 250 μM) | M (moderate solubility if the threshold concentration is 31.3 μM to 250 μM) | M (moderate solubility if the threshold concentration is 31.3 μM to 250 μM) | M (moderate solubility if the threshold concentration is 31.3 μM to 250 μM) | < 0.1 µM | 5 to 10 µM | > 10 µM | < 0.1 µM | 0.1-10 | 0.1-10 | < 0.1 µM | 0.1-10 | – | – | – | – | – | IC50 (CYP3A4(BQ)): 5 to 10 µM; IC50 (CYP1A2): > 10 µM; IC50 (CYP2C9): < 5 µM
– | CCCc1ccc(S(=O)(=O)Nc2ccc(F)c(C(=O)c3c[nH]c4ncnc(NC5CC5)c34)c2F)cc1 [P-1040, N-[3-(4-cyclopropylamino-7H-pyrrolo[2,3-d]pyrimidine-5-carbonyl)-2,4-difluoro-phenyl]-4-propyl-benzenesulfonamide] | M (moderate solubility if the threshold concentration is 31.3 μM to 250 μM) | L (low solubility if the threshold concentration is <31.3 μM) | L (low solubility if the threshold concentration is <31.3 μM) | L (low solubility if the threshold concentration is <31.3 μM) | < 0.1 µM | 5 to 10 µM | > 10 µM | < 0.1 µM | 0.1-10 | 0.1-10 | > 0.1 µM | >10 | > 10 µM | > 10 µM | > 10 µM | > 10 µM | – | –

SMILES | IC50 (CYP2C19) | turbidity threshold (L, M, H) 1.4 [1] | turbidity threshold (L, M, H) 4.5 [1] | turbidity threshold (L, M, H) 6.8 [1] | turbidity threshold (L, M, H) 7.4 [1] | IC50 (c-Raf-1) | IC50 (CYP3A4(BFC)) | IC50 (CYP2D6) | IC50 (B-Raf [2]) | Biochemical activity ratio B/V600E (B-Raf [3]) | Biochemical activity ratio B/C (B-Raf [3]) | IC50 (B-Raf V600E) | Biochemical activity ratio V600E/C (B-Raf V600E) | IC50 (CYP3A4(BQ); [4]) | IC50 (CYP1A2; human, 15 min) | IC50 (CYP2C9; [5]) | IC50 (CYP2C19; [6]) | IC50 (CYP3A4(BFC); [7]) | also measured
CCCc1ccc(S(=O)(=O)Nc2ccc(F)c(C(=O)c3c[nH]c4ncnc(OC)c34)c2F)cc1 [P-1005, N-[2,4-Difluoro-3-(4-methoxy-7H-pyrrolo[2,3-d]pyrimidine-5-carbonyl)-phenyl]-4-propyl-benzenesulfonamide] | 5 to 10 µM | H (high solubility if the threshold concentration is >250 μm) | L (low solubility if the threshold concentration is <31.3 μM) | L (low solubility if the threshold concentration is <31.3 μM) | L (low solubility if the threshold concentration is <31.3 μM) | < 0.1 µM | 5 to 10 µM | > 10 µM | > 0.1 µM | 0.1-10 | 0.1-10 | > 0.1 µM | >10 | > 10 µM | > 10 µM | > 10 µM | – | – | –
